The source of these data is ChEMBL document CHEMBL1139456, “Discovery of alpha,gamma-diketo acids as potent selective and reversible inhibitors of hepatitis C virus NS5b RNA-dependent RNA polymerase” (J Med Chem, 2004).

The structures appear in SMILES notation.

What is called IC50 is the point on the concentration scale where inhibition reaches its midpoint.

The target in one experiment is Nucleic Acid. The experiment can be described thus: Inhibitory activity against beta human DNA polymerase was determined. The class given is nucleic-acid assay.
For `N#Cc1c(Cl)cc(Cl)cc1COc1cccc(/C(O)=C/C(=O)C(=O)O)c1`, the IC50 is above 5 µM.

The target in another experiment is RNA-directed RNA polymerase (Hepacivirus hominis, UniProt O39930). The experiment can be described thus: Inhibitory activity against Hepatitis C virus RNA dependent RNA polymerase nonstructural protein 5B.
RNA-directed RNA polymerase, sequence (O39930 whole entry): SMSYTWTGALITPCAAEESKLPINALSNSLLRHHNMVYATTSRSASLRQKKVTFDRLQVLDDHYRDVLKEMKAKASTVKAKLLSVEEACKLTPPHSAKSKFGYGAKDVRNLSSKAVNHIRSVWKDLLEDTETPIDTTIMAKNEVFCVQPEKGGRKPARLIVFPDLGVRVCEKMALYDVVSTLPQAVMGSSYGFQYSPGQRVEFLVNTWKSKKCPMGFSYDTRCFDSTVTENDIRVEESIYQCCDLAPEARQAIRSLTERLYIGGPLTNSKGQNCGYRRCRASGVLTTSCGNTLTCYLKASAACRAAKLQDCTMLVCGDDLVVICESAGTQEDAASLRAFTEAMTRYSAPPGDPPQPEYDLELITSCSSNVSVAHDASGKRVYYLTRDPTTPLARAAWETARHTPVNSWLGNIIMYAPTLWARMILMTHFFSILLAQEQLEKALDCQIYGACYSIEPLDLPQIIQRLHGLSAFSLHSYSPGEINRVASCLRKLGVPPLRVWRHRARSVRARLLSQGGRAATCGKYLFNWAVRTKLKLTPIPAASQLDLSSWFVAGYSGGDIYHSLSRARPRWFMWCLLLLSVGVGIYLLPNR
`N#Cc1c(Cl)cccc1COc1cccc(/C(O)=C/C(=O)C(=O)O)c1` showed an IC50 of 0.11 µM.

Compound `O=C(O)C(=O)CC(=O)c1ccsc1` had an IC50 of 4.5 µM.

With `N#CCCCOc1cccc(/C(O)=C/C(=O)C(=O)O)c1`, 2.5 µM corresponded to half-maximal inhibition (IC50).

Consider `CC(C)(C)C(=O)CC(=O)C(=O)O`, for which the IC50 was above 50 µM.

With `O=C(O)C(=O)CC(=O)c1cccc(OCc2ccccc2)c1`, the IC50 was found to be 8 µM.

Regarding `CC(=O)CC(=O)C(=O)O`, the IC50 is above 50 µM.

With `O=C(O)C(=O)CC(=O)c1cccc(COc2ccccc2)c1`, the IC50 came out at 30 µM.

On to `N#Cc1c(Cl)cc(Cl)cc1COc1cccc(/C(O)=C/C(=O)C(=O)O)c1`, for which the midpoint of inhibition, the IC50, lay at 0.045 µM.

As for `N#CCCCOc1ccc(OCc2ccccc2C#N)cc1/C(O)=C/C(=O)C(=O)O`, the IC50 is above 50 µM.

Take `Cc1ccc(C(=O)CC(=O)C(=O)O)cc1`: inhibition was half-maximal at 5 µM (IC50).

With `O=C(O)C(=O)CC(=O)c1ccncc1`, the IC50 was above 50 µM.

Regarding `O=C(O)C(=O)CC(=O)c1ccccc1OCc1ccccc1`, the IC50 came out at 44 µM.

Compound `O=C(CC(O)C(=O)O)c1ccccc1` (stereo not given) came in with an IC50 above 50 µM.

Regarding `O=C(O)C(=O)CC(=O)c1ccccc1`, the IC50 amounted to 5.7 µM.

Compound `COC(=O)C(=O)CC(=O)c1ccccc1` came in with an IC50 above 50 µM.

Compound `CCCCCOc1ccccc1C(=O)CC(=O)C(=O)O` yielded an IC50 of 25 µM.

Take `O=C(O)C(=O)CC(=O)c1cccc(NS(=O)(=O)c2ccccc2)c1`: half-maximal inhibition (IC50) required 16 µM.

The compound `O=C(O)C(=O)CC(=O)c1ccco1` had an IC50 above 50 µM.

Compound `N#Cc1cccc(COc2cccc(/C(O)=C/C(=O)C(=O)O)c2)c1` came in with an IC50 of 6.7 µM.

In turn, `N#Cc1ccc(Br)cc1COc1cccc(/C(O)=C/C(=O)C(=O)O)c1` displayed an IC50 of 0.1 µM.

`O=C(O)C(=O)CC(=O)c1cccnc1` had an IC50 above 50 µM.

`N#CCCCOc1ccccc1C(=O)CC(=O)C(=O)O`: the IC50 was 0.35 µM.

`O=C(O)C(=O)CCc1ccccc1` showed a half-inhibitory concentration (IC50) above 50 µM.

For the compound `O=C(O)C(=O)CC(=O)c1cccc(NCc2ccccc2)c1`, the IC50 was 16.7 µM.

Compound `CCCCOc1ccccc1C(=O)CC(=O)C(=O)O` yielded a 50% inhibitory concentration (IC50) of 10 µM.

For the compound `CC(C)(C)c1ccc(C(=O)CC(=O)C(=O)O)cc1`, the IC50 is above 50 µM.

In the case of `CCc1ccc(C(=O)CC(=O)C(=O)O)cc1`, the IC50 was 47 µM.

For the compound `CCCOc1ccccc1C(=O)CC(=O)C(=O)O`, the IC50 worked out at 3.9 µM.

On to `N#Cc1ccccc1COc1cccc(/C(O)=C/C(=O)C(=O)O)c1`, for which the IC50 was 0.23 µM.

`O=C(O)C(=O)CC(=O)c1cccc(NC(=O)c2ccccc2)c1` registered an IC50 of 11 µM.

Consider `O=C(O)C(=O)CC(=O)C(c1ccccc1)c1ccccc1`, for which the IC50 is above 50 µM.

Another experiment concerns the target Human immunodeficiency virus type 1 reverse transcriptase (Human immunodeficiency virus 1, UniProt Q72547). The experiment can be described thus: Inhibitory activity against HIV-1 reverse transcriptase was determined.
Regarding `N#Cc1c(Cl)cc(Cl)cc1COc1cccc(/C(O)=C/C(=O)C(=O)O)c1`, the IC50 was above 50 µM.

Another experiment concerns the target Nucleic Acid. Briefly: Inhibitory activity against gamma human DNA polymerase was determined. The class given is nucleic-acid assay.
`N#Cc1c(Cl)cc(Cl)cc1COc1cccc(/C(O)=C/C(=O)C(=O)O)c1` returned an IC50 above 5 µM.

Another experiment deals with Nucleic Acid. Briefly: Inhibitory activity against alpha human DNA polymerase was determined. The class given is nucleic-acid assay.
`N#Cc1c(Cl)cc(Cl)cc1COc1cccc(/C(O)=C/C(=O)C(=O)O)c1` registered an IC50 above 5 µM.
